We go through 21 compounds from ChEMBL document CHEMBL1153780, “Synthesis and antibacterial activity of some new thiazole and thiophene derivatives” (2009).

Values after ≈ are worked out from the molar mass of the structure shown.

What all share (format): functional
Experiment [1] relates to Escherichia coli. As to the kind of experiment: Antibacterial activity against Escherichia coli at 2 mg/ml by agar diffusion method. The note with it: read-out: DIZ.
For experiment [2], the system named is Bacillus thuringiensis. Description: Antibacterial activity against Bacillus thuringiensis at 2 mg/ml by agar diffusion method. The note with it: read-out: DIZ.
Experiment [3] deals with Escherichia coli. Description: Antibacterial activity against Escherichia coli by twofold serial broth dilution method.
Experiment [4] concerns Bacillus thuringiensis. Description: Antibacterial activity against Bacillus thuringiensis by twofold serial broth dilution method.

Turning to `N#C/C(C(=O)N1NC(=O)C2C3c4ccccc4C(c4ccccc43)C2C1=O)=c1\sc(=O)/c(=C2\C(=O)Nc3ccccc32)n1-c1ccccc1` (stereo unspecified), the zone of inhibition at 2000 µg/mL in the experiment on Escherichia coli [1] and with Bacillus thuringiensis [2] was 15 mm throughout.

`Nc1c(C(=O)c2ccccc2)sc(Nc2ccccc2)c1C(=O)N1NC(=O)C2C3c4ccccc4C(c4ccccc43)C2C1=O` (stereo unspecified): the zone of inhibition at 2000 µg/mL was 20 mm in the experiment with Escherichia coli [1] and 17 mm in the experiment with Bacillus thuringiensis [2]. Further, the minimum inhibitory concentration (MIC) turned out to be 12.5 µg/mL (≈ 20.5 µM) in the experiment with Escherichia coli [3] and 50 µg/mL (≈ 81.9 µM) with Bacillus thuringiensis [4].

As for `O=C1NN(c2nc(-c3ccccc3)cs2)C(=O)C2C3c4ccccc4C(c4ccccc43)C12` (stereo unspecified), the zone of inhibition at 2000 µg/mL in the experiment with Escherichia coli [1] was 15 mm; in the experiment on Bacillus thuringiensis [2], 23 mm. For the same compound, the MIC is 50 µg/mL (≈ 111 µM) against Escherichia coli [3] and 12.5 µg/mL (≈ 27.8 µM) with Bacillus thuringiensis [4].

Take `N#C/C(C(=O)N1NC(=O)C2C3c4ccccc4C(c4ccccc43)C2C1=O)=C1\SCCN1c1ccccc1` (stereo unspecified): the values for the zone of inhibition at 2000 µg/mL in the experiment with Escherichia coli [1] and in the experiment on Bacillus thuringiensis [2] were 15 mm and 22 mm, respectively. In addition, the figures for the MIC against Escherichia coli [3] and in the experiment with Bacillus thuringiensis [4] were 50 µg/mL (≈ 96.4 µM) and 12.5 µg/mL (≈ 24.1 µM), respectively.

Consider `O=C(N[C@H](CO)[C@H](O)c1ccc([N+](=O)[O-])cc1)C(Cl)Cl` [CHLORAMPHENICOL], for which the zone of inhibition at 2000 µg/mL with Escherichia coli [1] stood at 19 mm; in the experiment on Bacillus thuringiensis [2], 23 mm. For the same compound, the MIC against Escherichia coli [3] and with Bacillus thuringiensis [4] was 12.5 µg/mL (≈ 38.7 µM) each time.

Regarding `CC(=O)c1sc(Nc2ccccc2)c(C(=O)N2NC(=O)C3C4c5ccccc5C(c5ccccc54)C3C2=O)c1N` (stereo unspecified), the zone of inhibition at 2000 µg/mL is 13 mm with Escherichia coli [1] and 15 mm in the experiment with Bacillus thuringiensis [2].

As to `O=C1CSC(N2NC(=O)C3C4c5ccccc5C(c5ccccc54)C3C2=O)=N1` (stereo unspecified), the results for the zone of inhibition at 2000 µg/mL in the experiment on Escherichia coli [1] and in the experiment on Bacillus thuringiensis [2] were 26 mm and 24 mm, respectively. Further, the MIC against Escherichia coli [3] and in the experiment with Bacillus thuringiensis [4] was 12.5 µg/mL (≈ 32.1 µM) throughout.

On to `N#C/C(C(=O)N1NC(=O)C2C3c4ccccc4C(c4ccccc43)C2C1=O)=C1/Nc2ccccc2S1` (stereo unspecified), for which the results for the zone of inhibition at 2000 µg/mL in the experiment with Escherichia coli [1] and in the experiment with Bacillus thuringiensis [2] were 26 mm and 30 mm, respectively. The minimum inhibitory concentration (MIC) in the experiment on Escherichia coli [3] was determined as 12.5 µg/mL (≈ 25.5 µM); in the experiment with Bacillus thuringiensis [4], 6 µg/mL (≈ 12.2 µM).

As for `Cc1csc(N2NC(=O)C3C4c5ccccc5C(c5ccccc54)C3C2=O)n1` (stereo unspecified), the zone of inhibition at 2000 µg/mL in the experiment with Escherichia coli [1] is 16 mm; in the experiment with Bacillus thuringiensis [2] it was 40 mm. The minimal inhibitory concentration (MIC) in the experiment with Escherichia coli [3] is 50 µg/mL (≈ 129 µM); in the experiment on Bacillus thuringiensis [4], 6 µg/mL (≈ 15.5 µM).

Consider `N#C/C(C(=O)N1NC(=O)C2C3c4ccccc4C(c4ccccc43)C2C1=O)=C1\SCCCN1c1ccccc1` (stereo unspecified), for which the zone of inhibition at 2000 µg/mL in the experiment on Escherichia coli [1] was found to be 25 mm; in the experiment with Bacillus thuringiensis [2] it was 19 mm. The minimum inhibitory concentration (MIC) against Escherichia coli [3] turned out to be 12.5 µg/mL (≈ 23.5 µM); with Bacillus thuringiensis [4], 50 µg/mL (≈ 93.9 µM).

Regarding `O=C1NN(c2nc(-c3ccccc3)c(Br)s2)C(=O)C2C3c4ccccc4C(c4ccccc43)C12` (stereo unspecified), the zone of inhibition at 2000 µg/mL with Escherichia coli [1] is 12 mm.

On to `CC1=CS/C(=C(\C#N)C(=O)N2NC(=O)C3C4c5ccccc5C(c5ccccc54)C3C2=O)N1c1ccccc1` (stereo unspecified), for which the zone of inhibition at 2000 µg/mL in the experiment with Escherichia coli [1] stood at 30 mm; in the experiment with Bacillus thuringiensis [2], 28 mm. Besides, the minimal inhibitory concentration (MIC) against Escherichia coli [3] and against Bacillus thuringiensis [4] was 12.5 µg/mL (≈ 23.6 µM) in each case.

In the case of `N#C/C(C(=O)N1NC(=O)C2C3c4ccccc4C(c4ccccc43)C2C1=O)=C(\S)Nc1ccccc1` (stereo unspecified), the zone of inhibition at 2000 µg/mL in the experiment with Escherichia coli [1] and in the experiment on Bacillus thuringiensis [2] was 22 mm in each case. In addition, the MIC in the experiment with Escherichia coli [3] and with Bacillus thuringiensis [4] was 12.5 µg/mL (≈ 25.4 µM) each time.

As for `N#C/C(C(=O)N1NC(=O)C2C3c4ccccc4C(c4ccccc43)C2C1=O)=C1\SC=C(c2ccccc2)N1c1ccccc1` (stereo unspecified), the zone of inhibition at 2000 µg/mL in the experiment on Escherichia coli [1] was found to be 40 mm; with Bacillus thuringiensis [2], 39 mm. Moreover, the MIC in the experiment with Escherichia coli [3] and against Bacillus thuringiensis [4] was 6 µg/mL (≈ 10.1 µM) each time.

With `CN(C)/C=N/N1C(=O)C2C3c4ccccc4C(c4ccccc43)C2C1=O` (stereo unspecified), the zone of inhibition at 2000 µg/mL came out at 21 mm in the experiment with Escherichia coli [1] and 20 mm in the experiment with Bacillus thuringiensis [2]. In addition, the minimum inhibitory concentration (MIC) came to 12.5 µg/mL (≈ 36.2 µM) with Escherichia coli [3] and 50 µg/mL (≈ 145 µM) in the experiment on Bacillus thuringiensis [4].

Turning to `N#Cc1sc(Nc2ccccc2)c(C(=O)N2NC(=O)C3C4c5ccccc5C(c5ccccc54)C3C2=O)c1N` (stereo unspecified), the zone of inhibition at 2000 µg/mL in the experiment with Escherichia coli [1] is 20 mm. This compound also yielded an MIC against Escherichia coli [3] of 12.5 µg/mL (≈ 23.5 µM).

As to `N#C/C(C(=O)N1NC(=O)C2C3c4ccccc4C(c4ccccc43)C2C1=O)=C1\SC(=O)CN1c1ccccc1` (stereo unspecified), the zone of inhibition at 2000 µg/mL with Escherichia coli [1] amounted to 18 mm; in the experiment with Bacillus thuringiensis [2], 17 mm.

In the case of `N#C/C(C(=O)N1NC(=O)C2C3c4ccccc4C(c4ccccc43)C2C1=O)=C1\SCC(=O)N1c1ccccc1` (stereo unspecified), the results for the zone of inhibition at 2000 µg/mL in the experiment with Escherichia coli [1] and in the experiment with Bacillus thuringiensis [2] were 26 mm and 24 mm, respectively. The minimal inhibitory concentration (MIC) with Escherichia coli [3] and in the experiment with Bacillus thuringiensis [4] was 12.5 µg/mL (≈ 23.5 µM) each time.

Turning to `N#C/C(C(=O)N1NC(=O)C2C3c4ccccc4C(c4ccccc43)C2C1=O)=c1\sc(=O)c(=C2C(=O)c3ccccc3C2=O)n1-c1ccccc1` (stereo unspecified), the zone of inhibition at 2000 µg/mL in the experiment on Escherichia coli [1] was determined as 25 mm; in the experiment with Bacillus thuringiensis [2], 19 mm. In addition, the MIC was determined as 12.5 µg/mL (≈ 18.5 µM) against Escherichia coli [3] and 50 µg/mL (≈ 74.1 µM) against Bacillus thuringiensis [4].

As to `COc1ccc(/C=c2\c(=O)s/c(=C(\C#N)C(=O)N3NC(=O)C4C5c6ccccc6C(c6ccccc65)C4C3=O)n2-c2ccccc2)cc1` (stereo unspecified), the zone of inhibition at 2000 µg/mL worked out at 13 mm with Escherichia coli [1] and 11 mm in the experiment on Bacillus thuringiensis [2].

Turning to `CC1(C)S[C@@H]2[C@H](NC(=O)[C@H](N)c3ccccc3)C(=O)N2[C@H]1C(=O)O` [AMPICILLIN], the zone of inhibition at 2000 µg/mL in the experiment with Escherichia coli [1] came out at 19 mm; in the experiment on Bacillus thuringiensis [2] it was 18 mm. The minimum inhibitory concentration (MIC) in the experiment with Escherichia coli [3] and against Bacillus thuringiensis [4] was 12.5 µg/mL (≈ 35.8 µM) each time.
